Experimental data reported in patent publication US10829484B2, “Compounds and methods for kinase modulation, and indications therefor” (Plexxikon Inc., priority 2015, dated 2020).
Substitutions are numbered along the chain they refer to.

How the values were obtained:
[1] = target: T1, BaF3-FLT3-ITD-D835V (Homo sapiens, UniProt P36888, INS600HVDFREYEYD/D835V, cells depend on it); experiment: CTB viability assay CS0048, BaF3-FLT3-ITD-D835V; type: cell-based, murine; conditions: BaF3-FLT3-ITD-D835V cells, CellTiter Blue viability, 72 hours; read-out: Cell Assay: CS0048: BaF3-FLT3-ITD-D835V CTB:IC50
T1 sequence (P36888 with tags, fused parts or gaps INS600HVDFREYEYD/D835V): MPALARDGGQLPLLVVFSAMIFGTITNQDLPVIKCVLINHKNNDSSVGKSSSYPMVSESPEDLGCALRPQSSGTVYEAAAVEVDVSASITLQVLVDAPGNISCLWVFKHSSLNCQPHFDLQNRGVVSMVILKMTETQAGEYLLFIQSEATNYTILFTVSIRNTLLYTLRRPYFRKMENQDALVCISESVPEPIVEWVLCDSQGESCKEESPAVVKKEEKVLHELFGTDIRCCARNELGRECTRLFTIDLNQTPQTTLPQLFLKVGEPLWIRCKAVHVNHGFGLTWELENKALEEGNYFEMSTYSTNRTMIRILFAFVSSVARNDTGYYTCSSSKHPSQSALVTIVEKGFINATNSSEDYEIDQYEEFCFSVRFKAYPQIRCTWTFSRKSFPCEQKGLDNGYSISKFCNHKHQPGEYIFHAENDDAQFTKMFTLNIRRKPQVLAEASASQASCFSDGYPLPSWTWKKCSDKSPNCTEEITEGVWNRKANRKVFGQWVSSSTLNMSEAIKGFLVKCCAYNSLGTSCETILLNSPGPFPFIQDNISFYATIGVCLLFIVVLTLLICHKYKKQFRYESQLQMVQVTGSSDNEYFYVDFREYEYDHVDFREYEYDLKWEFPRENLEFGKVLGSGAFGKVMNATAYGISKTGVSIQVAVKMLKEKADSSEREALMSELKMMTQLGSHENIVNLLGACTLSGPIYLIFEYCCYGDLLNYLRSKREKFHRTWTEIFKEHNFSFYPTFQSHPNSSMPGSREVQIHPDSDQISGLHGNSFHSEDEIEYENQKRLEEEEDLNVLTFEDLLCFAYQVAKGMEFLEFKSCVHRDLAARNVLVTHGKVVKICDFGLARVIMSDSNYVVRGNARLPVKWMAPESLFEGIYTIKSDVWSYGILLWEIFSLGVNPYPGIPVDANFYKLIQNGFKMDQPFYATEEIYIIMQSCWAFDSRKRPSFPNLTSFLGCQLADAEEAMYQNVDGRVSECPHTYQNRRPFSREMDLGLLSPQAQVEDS
From the text: (§1) Gene constructs containing the human FLT3 sequences FLT3-ITD, FLT3-ITD-F691L, FLT3-ITD-D835V and FLT3-D835V were synthesized by reverse translation of the human protein sequences, with codons optimized for mammalian expression. Sequence of the internal tandem duplication (ITD) was based on the MV4-11 ITD sequence. Synthetic DNA constructs were cloned into the pMSCV puro retroviral vector (Clontech) and transfected into the EcoPack2-293 packaging cell line (Clontech) to generate retroviruses that contain the different FLT3 constructs. Viruses were transduced into the IL-3-dependent, murine […] cell line, Ba/F3, and selected for puromycin resistance and IL-3 independence. All cell lines were cloned by limiting dilution and clones were used for all subsequent cell assays. Overexpression of the FLT3 mutants in the Ba/F3 cells results in constitutive phosphorylation of the exogenous FLT3 protein, which is required for IL-3 independence.
(§2) Cell lines were serum starved overnight in media containing 0.5% FBS, plated at 15,000 cells/well in 96-well white-walled tissue culture plates, and 3-fold serial dilutions of test compounds of Formula I were added for 72 hours at 37° C. CellTiter Blue (CTB, Promega) was added and incubated for an additional 3 hours at 37° C. Fluorescence was read at 560 nm excitation, 590 nm emission. Wells with CTB+media only were used for background subtraction, and the fluorescence of compound-treated cells was normalized to the fluorescence of DMSO-treated cells. IC50s were determined using Igor Pro software. All compounds are assayed in duplicate cell plates.

[2] = target: T2, BaF3-FLT3-ITD-F691L (Homo sapiens, UniProt P36888, INS600HVDFREYEYD/F691L, cells depend on it); experiment: CTB viability assay CS0047, BaF3-FLT3-ITD-F691L; type: cell-based, murine; conditions: BaF3-FLT3-ITD-F691L cells, CellTiter Blue viability, 72 hours; read-out: Cell Assay: CS0047:BaF3-FLT3-ITD-F691L CTB:IC50
T2 sequence (P36888 with tags, fused parts or gaps INS600HVDFREYEYD/F691L): T1 sequence (P36888 with tags, fused parts or gaps INS600HVDFREYEYD/D835V) with F701L, V845D
From the text: as §1, §2

| Compound | GI50 [1] [nM] | GI50 [2] [nM] |
| --- | --- | --- |
| CCc1nn(C2CCS(=O)(=O)C2)cc1Nc1ncc(-c2ccc(CC(=O)Nc3cc(C4(C(F)(F)F)CC4)on3)c(F)c2)cn1 (centres unmarked) [P-012, 2-[4-[2-[[1-(1,1-dioxothiolan-3-yl)-3-ethylpyrazol-4-yl]amino]pyrimidin-5-yl]-2-fluorophenyl]-N-[5-[1-(trifluoromethyl)cyclopropyl]isoxazol-3-yl]acetamide] | 10 to 50 | 10 to 50 |
| Cn1cc(Nc2ncc(-c3ccc(CC(=O)Nc4cc(C5(C(F)(F)F)CC5)on4)c(F)c3)c(C(F)(F)F)n2)cn1 [P-027, 2-[2-fluoro-4-[2-[(1-methylpyrazol-4-yl)amino]-4-(trifluoromethyl)pyrimidin-5-yl]phenyl]-N-[5-[1-(trifluoromethyl)cyclopropyl]isoxazol-3-yl]acetamide] | 10 to 50 | 50 to 100 |
| Cc1c(Nc2ncc(-c3ccc(CC(=O)Nc4cc(C5(C(F)(F)F)CC5)on4)c(F)c3)cn2)ncn1C [P-075, 2-[4-[2-[(l,5-dimethylimidazol-4-yl)amino]pyrimidin-5-yl]-2-fluorophenyl]-N-[5-[1-(trifluoromethyl)cyclopropyl]isoxazol-3-yl]acetamide] | 10 to 50 | 10 to 50 |
| O=C(Cc1ccc(-c2cnc(Nc3cnccn3)nc2)cc1F)Nc1cc(C2(C(F)(F)F)CC2)on1 [P-086, 2-[2-fluoro-4-[2-(pyrazin-2-ylamino)pyrimidin-5-yl]phenyl]-N-[5-[1-(trifluoromethyl)cyclopropyl]isoxazol-3-yl]acetamide] | 10 to 50 | 10 to 50 |
| COc1cnccc1Nc1ncc(-c2ccc(CC(=O)Nc3cc(C4(C(F)(F)F)CC4)on3)c(F)c2)cn1 [P-105, 2-[2-fluoro-4-[2-[(3-methoxy-4-pyridyl)amino]pyrimidin-5-yl]phenyl]-N-[5-[1-(trifluoromethyl)cyclopropyl]isoxazol-3-yl]acetamide] | 50 to 100 | 10 to 50 |
| COc1nc(Nc2cn(C)nc2C)ncc1-c1ccc(CC(=O)Nc2cc(C3(C(F)(F)F)CC3)on2)c(F)c1 [P-117, 2-[4-[2-[(l,3-dimethylpyrazol-4-yl)amino]-4-methoxy-pyrimidin-5-yl]-2-fluorophenyl]-N-[5-[1-(trifluoromethyl)cyclopropyl]isoxazol-3-yl]acetamide] |  | 10 to 50 |
| Cc1nc(Nc2cn(C)cn2)ncc1-c1ccc(CC(=O)Nc2cc(C3(C(F)(F)F)CC3)on2)c(F)c1 [P-119, 2-[2-fluoro-4-[4-methyl-2-[(1-methylimidazol-4-yl)amino]pyrimidin-5-yl]phenyl]-N-[5-[1-(trifluoromethyl)cyclopropyl]isoxazol-3-yl]acetamide] | 50 to 100 | 10 to 50 |
| C=CC(=O)Nc1nn(C)cc1Nc1ncc(-c2ccc(CC(=O)Nc3cc(C4(C(F)(F)F)CC4)on3)c(F)c2)cn1 [P-125, N-[4-[[5-[3-fluoro-4-[2-oxo-2-[[5-[1-(trifluoromethyl)cyclopropyl]isoxazol-3-yl]amino]ethyl]phenyl]pyrimidin-2-yl]amino]-1-methyl-pyrazol-3-yl] prop-2-enamide] | 50 to 100 | 10 to 50 |
| COc1nn(C2CC2)cc1Nc1ncc(-c2ccc(CC(=O)Nc3cc(C4(C(F)(F)F)CC4)on3)c(F)c2)c(C)n1 [P-126, 2-[4-[2-[(1-cyclopropyl-3-methoxypyrazol-4-yl)amino]-4-methyl-pyrimidin-5-yl]-2-fluorophenyl]-N-[5-[1-(trifluoromethyl)cyclopropyl]isoxazol-3-yl]acetamide] | 10 to 50 | 10 to 50 |
| Cc1nc(Nc2cnn(C3CC3)c2C)ncc1-c1ccc(CC(=O)Nc2cc(C3(C(F)(F)F)CC3)on2)c(F)c1 [P-129, 2-[4-[2-[(1-cyclopropyl-5-methylpyrazol-4-yl)amino]-4-methyl-pyrimidin-5-yl]-2-fluorophenyl]-N-[5-[1-(trifluoromethyl)cyclopropyl]isoxazol-3-yl]acetamide] | 10 to 50 | 10 to 50 |
| Cc1nn(C2CC2)cc1Nc1ncc(-c2ccc(CC(=O)Nc3cc(C4(C(F)(F)F)CC4)on3)c(F)c2)c(C)n1 [P-130, 2-[4-[2-[(1-cyclopropyl-3-methylpyrazol-4-yl)amino]-4-methyl-pyrimidin-5-yl]-2-fluorophenyl]-N-[5-[1-(trifluoromethyl)cyclopropyl]isoxazol-3-yl]acetamide] | 10 to 50 | 10 to 50 |
| Cn1cncc1Nc1ncc(-c2ccc(CC(=O)Nc3cc(C4(C(F)(F)F)CC4)on3)c(F)c2)cn1 [P-132, 2-[2-fluoro-4-[2-[(3-methylimidazol-4-yl)amino]pyrimidin-5-yl]phenyl]-N-[5-[1-(trifluoromethyl)cyclopropyl]isoxazol-3-yl]acetamide] | 10 to 50 | 10 to 50 |
| COc1nn(C(F)F)cc1Nc1ncc(-c2ccc(CC(=O)Nc3cc(C4(C(F)(F)F)CC4)on3)c(F)c2)c(C)n1 [P-144, 2-[4-[2-[[1-(difluoromethyl)-3-methoxypyrazol-4-yl]amino]-4-methyl-pyrimidin-5-yl]-2-fluorophenyl]-N-[5-[1-(trifluoromethyl)cyclopropyl]isoxazol-3-yl]acetamide] | 50 to 100 | 10 to 50 |
| CCn1cncc1Nc1ncc(-c2ccc(CC(=O)Nc3cc(C4(C(F)(F)F)CC4)on3)c(F)c2)cn1 [P-147, 2-[4-[2-[(3-ethylimidazol-4-yl)amino]pyrimidin-5-yl]-2-fluoro-phenyl]-N-[5-[1-(trifluoromethyl)cyclopropyl]isoxazol-3-yl]acetamide] | 50 to 100 | 10 to 50 |
| Cc1nn(C)cc1Nc1ncc(-c2ccc(CC(=O)Nc3cc(C4(C(F)(F)F)CC4)on3)c(F)c2)c(N)n1 [P-149, 2-[4-[4-amino-2-[(1,3-dimethylpyrazol-4-yl)amino]pyrimidin-5-yl]-2-fluorophenyl]-N-[5-[1-(trifluoromethyl)cyclopropyl]isoxazol-3-yl]acetamide] | 10 to 50 | 10 to 50 |
